Assay results as given in paper PMC10548524, “Evolutionary adaptation from hydrolytic to oxygenolytic catalysis at the α/β-hydrolase fold” (Chemical Science, 2023).

Assays:
[1] = molecular target: T1, HOD (1-H-3-hydroxy-4-oxoquinaldine 2,4-dioxygenase) (Paenarthrobacter nitroguajacolicus, UniProt O31266, S101A); test: X-ray crystallography, normoxic and O2-pressurised (soak-and-freeze); format: binding; conditions: 2.0 Å; with water (normoxic) or O2 (40 bar, 2 min) at the R-site; active site
T1 construct: crystallised protein; construct, tags and host only in supplement

[2] = molecular target: T2, HOD (1-H-3-hydroxy-4-oxoquinaldine 2,4-dioxygenase) (Paenarthrobacter nitroguajacolicus, UniProt O31266, H251A); test: as above; format: binding; conditions: 2.0 Å (normoxic) and 2.1 Å (hyperoxic, 40 bar O2, 2 min); active site, non-reactive substrate analogue
T2 construct: crystallised protein; construct, tags and host only in supplement

**Q.** With Cc1cc(=O)c2ccccc2[nH]1 [MQO, 2-methyl-quinolin-4(1H)-one] as the compound, how does the “X-ray crystallography, normoxic and O2-pressurised (soak-and-freeze)” value [1] read?
**A.** The value was “we then solved the structure of HOD^S101A in a complex with MQO”.

**Q.** And the “X-ray crystallography, normoxic and O2-pressurised (soak-and-freeze)” value [2]?
**A.** Its value is “MQO binds in the active site similarly to QND”.
